Here are results for 77 sequences from the OligoGym collection.

After the bases stand the sugars from the 5' end (letter, count) and the backbone: PS all phosphorothioate, else s phosphorothioate and o phosphodiester by linkage. Methylation of C is not given here. e = 2'-O-(2-methoxyethyl) (MOE); k = constrained ethyl (cEt); d = 2'-deoxy (DNA); m = 2'-O-methyl

In this data set the target is HSD17B13. Conditions: ASO, HepaRG.

Under “1 µM”, GCATCAAGACATTCTA (sugars k3 d10 k3, PS) gave a target mRNA inhibition of 72%.
The same measure, in the same setting: the result for GTCGGATTATTTTTTC (sugars k3 d10 k3, PS) reads 61%.
For the sequence “TTACAGCATCAAGACA (sugars kkdddddddddkekek, PS)”, the target mRNA inhibition (1 µM) came to 22%.
Consider CAATTTACTTTCAGCC (sugars k3 d10 k3, PS), for which the target mRNA inhibition stood at 0% (0.02 µM); 18% (0.078 µM); 37% (0.313 µM); 71% (1 µM); 76% (1.25 µM); 86% (5 µM).
For the setting “1 µM”, “TAGAATAGTCTTCAGC (sugars k3 d9 k3 e1, PS)” displayed a target mRNA inhibition of 50%.
For “CAGTCTTAAACCTTCC (sugars k3 d1 m1 d8 k3, PS)”, the target mRNA inhibition (1 µM) is 59%.
Still for that read-out and setting: the result for TTAGGATTAATTCCCT (sugars k3 d10 k3, PS) reads 14%; that for “TTCTGTGGCATGGCTA (sugars kkdddddddddkekek, PS)”, 50%; that for TTTTAATACGACTTCC (sugars k3 d10 k3, PS), 57%.
Same read-out and setting: to CATTATCCTTACTCCC (sugars k3 d10 k3, PS) belongs 16%.
The same measure, in the same setting: the result for CTCTCCATCATCGATG (sugars k3 d10 k3, PS) reads 0%.
TCTGATTACAGCATCA (sugars k3 d10 k3, PS) displayed a target mRNA inhibition (1 µM) of 48%.
The same measure, in the same setting: the result for “GTCCAGGTTGAGATAA (sugars k3 d9 k3 e1, PS)” reads 52%.
On to “ACCGTTTTGGGCTAAT (sugars kkdddddddddkekek, PS)”, for which the target mRNA inhibition (0.02 µM) is 23%; the target mRNA inhibition (0.078 µM) was found to be 24%; the target mRNA inhibition (0.313 µM) amounted to 37%; the target mRNA inhibition (1 µM) was 76%; the target mRNA inhibition (1.25 µM) was found to be 66%; the target mRNA inhibition (5 µM) is 78%.
With ATCATCGATGGAAGAA (sugars k3 d10 k3, PS), the target mRNA inhibition (1 µM) is 30%.
On to GGCACTAAAGGTTTCT (sugars k3 d10 k3, PS), for which the target mRNA inhibition (0.02 µM) was 0%; the target mRNA inhibition (0.078 µM) was found to be 26%; the target mRNA inhibition (0.313 µM) is 41%; the target mRNA inhibition (1 µM) is 62%; the target mRNA inhibition (1.25 µM) is 66%; the target mRNA inhibition (5 µM) amounted to 75%.
CTACTTCACTATATTG (sugars k3 d10 k3, PS) came in with a target mRNA inhibition (1 µM) of 33%.
The same measure, in the same setting: the result for TTGAACCGTATTCCCA (sugars k3 d10 k3, PS) reads 76%.
Consider “TCTCTTGACAATGGTT (sugars kkdddddddddkekek, PS)”, for which the target mRNA inhibition stood at 15% (0.02 µM); 25% (0.078 µM); 43% (0.313 µM); 70% (1 µM); 71% (1.25 µM); 70% (5 µM).
TGTCCAGGTTGAGATA (sugars k3 d10 k3, PS): the target mRNA inhibition (1 µM) was 48%.
Where the note is “1 µM”, CTTTTAACTACCCTCA (sugars k3 d10 k3, PS) displayed a target mRNA inhibition of 16%.
The same measure, in the same setting: to TGTTATCAGAAACTTA (sugars k3 d10 k3, PS) belongs 44%; to CAATGAGATTACCCCT (sugars k3 d10 k3, PS), 16%.
For the sequence CCAGTACAGTTCCTTT (sugars k3 d10 k3, PS), the target mRNA inhibition stood at 38% (0.02 µM); 37% (0.078 µM); 53% (0.313 µM); 66% (1 µM); 75% (1.25 µM); 89% (5 µM).
For the setting “1 µM”, TAGTCTTGATGTAGTG (sugars k3 d10 k3, PS) had a target mRNA inhibition of 55%.
Still for that read-out and setting: the result for “TCTTATGTAATAGCCA (sugars k3 d1 m1 d8 k3, PS)” reads 64%.
As for CACCGTTTTGGGCTAA (sugars k3 d10 k3, PS), the target mRNA inhibition by setting is: (0.02 µM) 13%; (0.078 µM) 23%; (0.313 µM) 53%; (1 µM) 85%; (1.25 µM) 83%; (5 µM) 94%.
Turning to ATAAGAGATGAGTAGG (sugars k3 d10 k3, PS), the target mRNA inhibition (1 µM) was determined as 56%.
For GCCTAGTTACAAACCA (sugars k3 d10 k3, PS), under “1 µM”, the target mRNA inhibition was 56%.
The same measure, in the same setting: to GCTTAATTTTCGGGTT (sugars k3 d10 k3, PS) belongs 36%; to “CAGGGTGGTAACGGTG (sugars kkdddddddddkekek, PS)”, 49%; to “GTAAGTATTCCATCTA (sugars k3 d9 k3 e1, PS)”, 39%.
Same read-out and setting: to TTGACTGCTGCTAGTG (sugars k3 d10 k3, PS) belongs 30%; to “ATAGAGTTGCACCGTT (sugars kkdddddddddkekek, PS)”, 45%.
“TCTGGGACCAAGGATA (sugars k3 d1 m1 d8 k3, PS)”: the target mRNA inhibition (1 µM) was determined as 31%.
The sequence GGAAATTGTTGCTGTT (sugars k3 d10 k3, PS) came in with a target mRNA inhibition (1 µM) of 46%.
Same read-out and setting: to TCTTAATTACATTCCC (sugars k3 d10 k3, PS) belongs 64%; to CCGCCCTTAAGTCATT (sugars k3 d10 k3, PS), 53%; to TAAATACCCTTGGTGG (sugars k3 d10 k3, PS), 7%.
Take “TTATGTAATAGCCAGT (sugars k3 d9 k3 e1, PS)”: the target mRNA inhibition amounted to 0% (0.02 µM); 13% (0.078 µM); 14% (0.313 µM); 77% (1 µM); 74% (1.25 µM); 92% (5 µM).
For the sequence “CTTAAACCTTCCCTGT (sugars k3 d9 k3 e1, PS)”, the target mRNA inhibition (1 µM) amounted to 34%.
For the setting “1 µM”, GCTGGATATACTGTCC (sugars k3 d10 k3, PS) yielded a target mRNA inhibition of 36%.
Same read-out and setting: the result for CTTACATATTGCATAC (sugars k3 d10 k3, PS) reads 35%.
Still for that read-out and setting: to TAGTAATTGCATCTGC (sugars k3 d10 k3, PS) belongs 51%; to “TGTAAGAGTCAGTATC (sugars k3 d1 m1 d8 k3, PS)”, 29%.
Still for that read-out and setting: to AATGCTACTTGAACAG (sugars k3 d10 k3, PS) belongs 54%.
GCCTAGTTGCAATGAG (sugars k3 d10 k3, PS) displayed a target mRNA inhibition (1 µM) of 61%.
For the setting “1 µM”, ACAGAACCAATATGCT (sugars k3 d10 k3, PS) came in with a target mRNA inhibition of 40%.
The sequence CGTTTGACTGCTGCTA (sugars k3 d10 k3, PS) had a target mRNA inhibition (1 µM) of 58%.
Take CCACACTAATGAATCA (sugars k3 d10 k3, PS): where the note is “1 µM”, the target mRNA inhibition is 43%.
Still for that read-out and setting: the result for GATAATATGTGACTTG (sugars k3 d10 k3, PS) reads 68%; that for AAATTATTGCCTGAAC (sugars k3 d10 k3, PS), 32%; that for TTGAACAGTCTTAAAC (sugars k3 d10 k3, PS), 33%.
As for TGTAGTCCTAGGGAGG (sugars k3 d10 k3, PS), the target mRNA inhibition reads like this: (0.02 µM) 0%; (0.078 µM) 0%; (0.313 µM) 32%; (1 µM) 86%; (1.25 µM) 66%; (5 µM) 83%.
Where the note is “1 µM”, ACTAATGAATCATGAT (sugars k3 d10 k3, PS) showed a target mRNA inhibition of 39%.
Regarding “CACCGTTTTGGGCTAA (sugars k3 d9 k3 e1, PS)”, for the setting “1 µM”, the target mRNA inhibition was determined as 71%.
Still for that read-out and setting: the result for “ATCTUATAAGACTATA (sugars k3 d1 m1 d8 k3, PS)” reads 35%.
“TAAGCTGAGAGTTCTA (sugars k3 d1 m1 d8 k3, PS)”: for the setting “1 µM”, the target mRNA inhibition is 27%.
For the sequence CAAGCTACCTCCAAAT (sugars k3 d10 k3, PS), the target mRNA inhibition (1 µM) was found to be 25%.
For the sequence “TGCACCGTTTTGGGCT (sugars k3 d1 m1 d8 k3, PS)”, for the setting “1 µM”, the target mRNA inhibition is 55%.
The same measure, in the same setting: to “GAACAGTCTTAAACCT (sugars k3 d9 k3 e1, PS)” belongs 64%; to “TTGAGTTCTCCACTGC (sugars k3 d9 k3 e1, PS)”, 26%; to CGCCTAAAGGAGATCT (sugars k3 d10 k3, PS), 59%.
Same read-out and setting: to ACTGTGACGATGTGGC (sugars k3 d10 k3, PS) belongs 40%; to TTATTATGAGGATCTG (sugars k3 d10 k3, PS), 50%; to GGCAGTAAAGTGCTAA (sugars k3 d10 k3, PS), 62%.
Same read-out and setting: the result for ATACGCATGCGCAGTG (sugars k3 d10 k3, PS) reads 38%; that for CGTATTTGAGATTCAC (sugars k3 d10 k3, PS), 59%.
“AGAGAGTAATCAGTTT (sugars k3 d1 m1 d8 k3, PS)” returned a target mRNA inhibition (1 µM) of 25%.
As to AGGAGTAGTGGAGCCA (sugars k3 d10 k3, PS), the target mRNA inhibition (1 µM) is 16%.
The same measure, in the same setting: the result for TACCAAGAGGGTTTTT (sugars k3 d10 k3, PS) reads 17%; that for “AGGATAGTCCATGCAA (sugars kkdddddddddkekek, PS)”, 46%.
For ATAGATCCTTTTTTGG (sugars k3 d10 k3, PS), under “1 µM”, the target mRNA inhibition is 6%.
On the same count and under the same terms, the result for ATGTCCAGGTTGAGAT (sugars k3 d10 k3, PS) reads 55%.
On the same count and under the same terms, the result for “GGAGTGCATCTTAAGA (sugars k3 d9 k3 e1, PS)” reads 40%; that for TGAATGTAAAGGCTGG (sugars k3 d10 k3, PS), 38%.
Regarding “TGCTAGTGCCAAACCA (sugars k3 d1 m1 d8 k3, PS)”, the target mRNA inhibition was determined as 7% (0.02 µM); 29% (0.078 µM); 46% (0.313 µM); 80% (1 µM); 67% (1.25 µM); 90% (5 µM).
